Assay results: PubChem BioAssay (NCI)
Values joined by “and” are separate entries in the source; they are usually repeats but may differ in a detail not shown here. Equal entries are not always repeated.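 Following 48 hours of exposure in 96-well plates, responses at five concentrations were used to interpolate endpoints linearly. GI50 is the concentration that inhibits growth by half. TGI marks complete inhibition of growth.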

Experiments:
Test in all cases: inhibition of tumour cell growth, NCI panel, 48 h
[1] = test system: IGROV1 ovarian
[2] = test system: NCI-H522 lung
[3] = test system: DMS 273 small cell lung
[4] = test system: NCI/ADR-RES ovarian
[5] = test system: LXFL 529 NSCLC
[6] = test system: DMS 114 small cell lung
[7] = test system: DLD-1 colon
[8] = test system: SN12C renal
[9] = test system: MALME-3M melanoma
[10] = test system: HOP-62 NSCLC
[11] = test system: HOP-92 NSCLC
[12] = test system: DU-145 prostate

Work on `CCCCCCN(CCCCCC)C(=S)N/N=C(\C)c1ccccn1` yielded a TGI [1] of 2.62 µM, a TGI [2] of 2.7 µM and a TGI [3] of 3.92 µM. It also gave a TGI [4] of 4.27 µM, a TGI [5] of 1.45 µM and a TGI [6] of 2.29 µM. It also gave a TGI [7] of 2.93 µM, a TGI [8] of 2.56 µM and a TGI [9] of 3.17 µM. It also gave a TGI [10] of 3.32 µM, a TGI [11] of 6.43 µM and a TGI [12] of 2.59 µM.

`Cc1nc2ccccc2nc1CC(=O)C(=O)Nc1ccc(Cl)cc1Cl` gave a TGI [1] of over 100 µM, a TGI [2] of over 100 µM and a TGI [3] of over 100 µM. It also gave a TGI [5] of over 100 µM, a TGI [7] of over 100 µM and a TGI [8] of over 100 µM. The TGI [9] was over 100 µM, the TGI [10] was over 100 µM and the TGI [11] was over 100 µM.

With `Cc1nc(N)nc(CCC(=O)Nc2cccc(C(F)(F)F)c2)c1-c1ccc(Cl)cc1` the TGI [1] was over 100 µM, the TGI [2] was over 100 µM and the TGI [3] was over 100 µM. The TGI [5] was over 100 µM, the TGI [6] was over 100 µM and the TGI [7] was over 100 µM. It also gave a TGI [8] of over 100 µM, a TGI [9] of over 100 µM and a TGI [10] of over 100 µM. For the same compound, the TGI [11] was over 100 µM.

For `COc1cc(C)c(CC/C(C)=C/Cc2cc(O)ccc2O)c(C)c1C`, the TGI [1] was over 25 µM, the TGI [2] was over 25 µM and the TGI [3] was over 25 µM. The TGI [5] was over 25 µM, the TGI [6] was over 25 µM and the TGI [7] was over 25 µM. The TGI [8] was over 25 µM, the TGI [9] was over 25 µM and the TGI [11] was over 25 µM.

Work on `O=C1[C@@H]2C(c3c(Cl)cccc3Cl)=NO[C@@H]2C(=O)N1c1ccc(Cc2ccc(N3C(=O)[C@H]4C(c5c(Cl)cccc5Cl)=NO[C@H]4C3=O)cc2)cc1` yielded a TGI [1] of over 100 µM, a TGI [3] of over 100 µM and a TGI [5] of over 100 µM. It also gave a TGI [6] of over 100 µM, a TGI [7] of over 100 µM and a TGI [8] of over 100 µM. For the same compound, the TGI [9] was over 100 µM, the TGI [10] was over 100 µM and the TGI [11] was over 100 µM.

With `COc1cc([C@@H]2c3cc4c(cc3[C@@H](NC(=O)c3ccc(C#N)cc3)C3COC(=O)[C@@H]32)OCO4)cc(OC)c1O` (some centres undefined) the TGI [1] was 5.13 µM, the TGI [2] was 2.39 µM and the TGI [3] was 10.3 µM. For the same compound, the TGI [5] was over 100 µM, the TGI [6] was 2.27 µM and the TGI [7] was 12 µM. It also gave a TGI [8] of 1.51 µM, a TGI [9] of 2.59 µM and a TGI [10] of 0.673 µM. For the same compound, the TGI [11] was 22.9 µM.

In the case of `COC1N(C2CC(O)C(CO)O2)C(=O)NC(=O)C1(F)Br` (centres undefined), the GI50 [1] is reported as over 50 µM, the TGI [1] is reported as over 100 µM and the GI50 [2] is reported as 22.4 µM. For the same compound, the TGI [2] was 50 µM and > 70 µM, the TGI [3] was 50 µM and the TGI [4] was over 100 µM. For the same compound, the TGI [5] was 50 µM, the TGI [6] was 50 µM and the TGI [7] was 50 µM. The GI50 [8] was 15.6 µM, the TGI [8] was 50 µM and > 100 µM and the GI50 [9] was 35.1 µM. For the same compound, the TGI [9] was 50 µM and > 100 µM, the GI50 [10] was 8.35 µM and the TGI [10] was 50 µM and > 66.5 µM. The GI50 [11] was 13.2 µM, the TGI [11] was 43.8 µM and > 100 µM and the TGI [12] was over 100 µM.

With `COC(=O)C1C(=O)O[C@@H](c2ccc3c(c2)OCO3)C1C(=O)OC` (mixture of isomers) the TGI [1] was over 100 µM, the TGI [2] was over 100 µM and the TGI [3] was over 100 µM. It also gave a TGI [5] of over 100 µM, a TGI [6] of over 100 µM and a TGI [7] of over 100 µM. It also gave a TGI [8] of over 100 µM, a TGI [9] of over 100 µM and a TGI [10] of over 100 µM. For the same compound, the TGI [11] was over 100 µM.

`O=[N+]([O-])c1cccc(C2=NN(c3ccccc3)C3c4cc(Br)ccc4OCC23)c1` (centres undefined) showed a TGI [1] of over 100 µM, a TGI [2] of over 100 µM and a TGI [3] of over 100 µM. The TGI [5] was over 100 µM, the TGI [6] was over 100 µM and the TGI [7] was over 100 µM. For the same compound, the TGI [9] was over 100 µM, the TGI [10] was over 100 µM and the TGI [11] was over 100 µM.

Work on `CCOC(=O)C1C(c2ccc(Cl)cc2Cl)NC(c2ccc(C)cc2)C(C(=O)OC)S1(=O)=O` (centres undefined) yielded a TGI [1] of over 100 µM, a TGI [2] of over 100 µM and a TGI [3] of over 100 µM. For the same compound, the TGI [5] was over 100 µM, the TGI [7] was over 100 µM and the TGI [9] was over 100 µM. For the same compound, the TGI [10] was over 100 µM and the TGI [11] was over 100 µM.

With `COC(=O)/C=C(/C(=O)OC)C1(C)c2cc(C(=O)OC)c(C(=O)OC)c(N)c2C(=N)N1c1ccccc1` (centres undefined) the TGI [1] was 76.8 µM, the TGI [2] was 27.8 µM and the TGI [3] was over 100 µM. The TGI [5] was 38.6 µM, the TGI [6] was 31.6 µM and the TGI [7] was 29.4 µM. The TGI [8] was 48.4 µM, the TGI [9] was 32.7 µM and the TGI [10] was over 100 µM. The TGI [11] was 43.6 µM.
